{
  "source": "patent US9540691B2",
  "about": "“Assays and methods for selecting a treatment regimen for a subject with depression” (THE GENERAL HOSPITAL CORPORATION, priority 2011, dated 2017)",
  "tested_on": "MDD patients carrying the indicated conditions",
  "method": "Folate levels are classified as either low (<=2.5 ng/ml) or normal; and homocysteine levels as either normal or elevated (>=[…]). The presence or absence of at least one […] allele for the MTHFR gene are entered as a dichotomous variable (present or absent). […] Using folate as an example predicator, the presence or absence of a low serum-folate level along with treatment assignment can be entered in a 2×2, factorial ANOVA, using depression improvement scores (baseline minus endpoint HAM-D-17 scores) as the dependant variable. […] Similar analyses (i.e. separate 2×2 ANOVA's) can be performed substituting the presence of low folate levels for the presence of other predictors as described herein. Similarly, the effect of other predictors can be indicated by the interaction term representing the potential modulating influence of those variables.\nParticularly, specific genetic and biomarkers that were assessed include the following: • (a) BMI calculation of at least about 30 kg/m^2; • (b) an expression ratio of SAM/SAH smaller than 2.8 (e.g., 2.71) as measured in a plasma sample; • (c) a level of 4-HNE no less than 3.28 μg/mL (as measured in a plasma sample); • (d) presence of rare variants CT or TT at position 677 of SEQ ID NO: 1 corresponding to a portion of a genomic nucleic acid sequence of methylenetetrahydrofolate reductase (MTHFR) (abbreviated as “MTHFR 677” below); • (e) presence of rare variants AG or GG at position 2756 of SEQ ID NO: 2 corresponding to a portion of genomic nucleic acid sequence of methionine synthase (MTR) (abbreviated as “MTR 2756” below); and • (f) presence of rare variants AG or GG at position 66 of SEQ ID NO: 3 corresponding to a portion of genomic nucleic acid sequence of methionine synthase reductase (MTRR) (abbreviated as “MTRR 66” below).\nThe efficacy effect is determined by measuring the mean change in the HAMD-17 score and HAMD-28 score by the end of Phase I and Phase II, as compared to the baseline.",
  "key": {"[1]": {"conditions": "Pooled phases, interaction of BMI with the treatment, with SSRI"}, "[2]": {"conditions": "Pooled phases, interaction of HNE-his with the treatment, with SSRI"}, "[3]": {"conditions": "Pooled phases, interaction of SAM/SAH with the treatment, with SSRI"}},
  "note": "Read-outs that look alike come from different tables or passages of the source. Marks after values point to notes of the source that are not given here.",
  "data": [
    {"smiles": "CN1c2c(nc(N)[nH]c2=O)NC[C@@H]1CNc1ccc(C(=O)N[C@@H](CCC(=O)O)C(=O)O)cc1", "note": "[6(S)-5-MTHF, 6(S)-5-methyltetrahydrofolate]", "values": [
      {"measurement": "Effect, change in HAMD-17 score", "setting": "Pooled phases, MTHFR 677 CC and MTR 2756 AA (29,13), with SSRI", "value": 0.722},
      {"measurement": "Effect, change in HAMD-28 score", "setting": "Pooled phases, MTHFR 677 CC and MTR 2756 AA, with SSRI", "value": 0.711},
      {"measurement": "Effect, change in HAMD-17 score", "setting": "Pooled phases, MTHFR 677 CT or TT and BMI >= 30 kg/m^2 (13,6), with SSRI", "value": "−8.090"},
      {"measurement": "Effect, change in HAMD-28 score", "setting": "Pooled phases, MTHFR 677 CT or TT and BMI >= 30 kg/m^2, with SSRI", "value": "−9.884"},
      {"measurement": "Effect, change in HAMD-17 score", "setting": "Pooled phases, MTHFR 677 CT or TT and HNE-His >= median (11,6), with SSRI", "value": "−9.446"},
      {"measurement": "Effect, change in HAMD-28 score", "setting": "Pooled phases, MTHFR 677 CT or TT and HNE-His >= median, with SSRI", "value": "−9.865"},
      {"measurement": "Effect, change in HAMD-17 score", "setting": "Pooled phases, MTHFR 677 CT or TT and MTR 2756 AG or GG (8,4), with SSRI", "value": "−18.71"},
      {"measurement": "Effect, change in HAMD-28 score", "setting": "Pooled phases, MTHFR 677 CT or TT and MTR 2756 AG or GG, with SSRI", "value": "−23.29"},
      {"measurement": "Effect, change in HAMD-17 score", "setting": "Pooled phases, MTR 2756 AA (45,21), with SSRI", "value": "−0.590"},
      {"measurement": "Effect, change in HAMD-17 score", "setting": "Pooled phases, MTR 2756 AA and BMI < 30 kg/m^2 (17,7), with SSRI", "value": 3.196},
      {"measurement": "Effect, change in HAMD-28 score", "setting": "Pooled phases, MTR 2756 AA and BMI < 30 kg/m^2, with SSRI", "value": 3.352},
      {"measurement": "Effect, change in HAMD-17 score", "setting": "Pooled phases, MTR 2756 AA and HNE-His < median (26,13), with SSRI", "value": 1.319},
      {"measurement": "Effect, change in HAMD-28 score", "setting": "Pooled phases, MTR 2756 AA and HNE-His < median, with SSRI", "value": 2.085},
      {"measurement": "Effect, change in HAMD-17 score", "setting": "Pooled phases, MTR 2756 AA and MTRR 66 AA (11,5), with SSRI", "value": "−1.373"},
      {"measurement": "Effect, change in HAMD-17 score", "setting": "Pooled phases, MTR 2756 AA and MTRR 66 AA and HNE-His < median (6,4), with SSRI", "value": 0.466},
      {"measurement": "Effect, change in HAMD-28 score", "setting": "Pooled phases, MTR 2756 AA and MTRR 66 AA and HNE-His < median = 3.28 (plasma sample), with SSRI", "value": "−2.221"},
      {"measurement": "Effect, change in HAMD-17 score", "setting": "Pooled phases, MTR 2756 AA and MTRR 66 AA and SAM/SAH >= median (6,3), with SSRI", "value": "−3.98*"},
      {"measurement": "Effect, change in HAMD-28 score", "setting": "Pooled phases, MTR 2756 AA and MTRR 66 AA and SAM/SAH >= median, with SSRI", "value": "−3.74*"},
      {"measurement": "Effect, change in HAMD-28 score", "setting": "Pooled phases, MTR 2756 AA and MTRR 66 AA, with SSRI", "value": "−3.032"},
      {"measurement": "Effect, change in HAMD-17 score", "setting": "Pooled phases, MTR 2756 AA and SAM/SAH >= median (24,12), with SSRI", "value": 0.054},
      {"measurement": "Effect, change in HAMD-28 score", "setting": "Pooled phases, MTR 2756 AA and SAM/SAH >= median, with SSRI", "value": "−0.071"},
      {"measurement": "Effect, change in HAMD-28 score", "setting": "Pooled phases, MTR 2756 AA, with SSRI", "value": "−0.047"},
      {"measurement": "Effect, change in HAMD-17 score", "setting": "Pooled phases, MTR 2756 AG or GG and BMI >= 30 kg/m^2 (10,5), with SSRI", "value": "−11.714"},
      {"measurement": "Effect, change in HAMD-28 score", "setting": "Pooled phases, MTR 2756 AG or GG and BMI >= 30 kg/m^2, with SSRI", "value": "−14.433"},
      {"measurement": "Effect, change in HAMD-17 score", "setting": "Pooled phases, MTR 2756 AG or GG and HNE-His >= median (13,7), with SSRI", "value": "−8.072"},
      {"measurement": "Effect, change in HAMD-28 score", "setting": "Pooled phases, MTR 2756 AG or GG and HNE-His >= median = 3.28 (plasma sample), with SSRI", "value": "−9.508"},
      {"measurement": "Effect, change in HAMD-17 score", "setting": "Pooled phases, MTR 2756 AG or GG and MTRR 66 AG or GG (15,7), with SSRI", "value": "−6.976"},
      {"measurement": "Effect, change in HAMD-17 score", "setting": "Pooled phases, MTR 2756 AG or GG and MTRR 66 AG or GG and BMI >= 30 kg/m^2 (8,4), with SSRI", "value": "−10.972"},
      {"measurement": "Effect, change in HAMD-28 score", "setting": "Pooled phases, MTR 2756 AG or GG and MTRR 66 AG or GG and BMI >= 30 kg/m^2, with SSRI", "value": "−15.347"},
      {"measurement": "Effect, change in HAMD-17 score", "setting": "Pooled phases, MTR 2756 AG or GG and MTRR 66 AG or GG and HNE-His >= median (10,4), with SSRI", "value": "−7.942"},
      {"measurement": "Effect, change in HAMD-28 score", "setting": "Pooled phases, MTR 2756 AG or GG and MTRR 66 AG or GG and HNE-His >= median, with SSRI", "value": "−10.241"},
      {"measurement": "Effect, change in HAMD-28 score", "setting": "Pooled phases, MTR 2756 AG or GG and MTRR 66 AG or GG, with SSRI", "value": "−9.348"},
      {"measurement": "Effect, change in HAMD-17 score", "setting": "Pooled phases, MTR 2756 AG or GG and SAM/SAH < median (10,4), with SSRI", "value": "−5.583"},
      {"measurement": "Effect, change in HAMD-28 score", "setting": "Pooled phases, MTR 2756 AG or GG and SAM/SAH < median = 2.71 (plasma sample), with SSRI", "value": "−11.683"},
      {"measurement": "Effect, change in HAMD-17 score", "setting": "Pooled phases, MTR 2756 AG/GG (20,11), with SSRI", "value": "−5.677"},
      {"measurement": "Effect, change in HAMD-28 score", "setting": "Pooled phases, MTR 2756 AG/GG, with SSRI", "value": "−8.243"},
      {"measurement": "Effect, change in HAMD-17 score", "setting": "Pooled phases, MTRR 66 AA and HNE-His < median (8,5), with SSRI", "value": 2.575},
      {"measurement": "Effect, change in HAMD-28 score", "setting": "Pooled phases, MTRR 66 AA and HNE-His < median = 3.28 (plasma sample), with SSRI", "value": "−2.626"},
      {"measurement": "Effect, change in HAMD-17 score", "setting": "Pooled phases, MTRR 66 AA and SAM/SAH >= median (9,6), with SSRI", "value": "−2.978"},
      {"measurement": "Effect, change in HAMD-28 score", "setting": "Pooled phases, MTRR 66 AA and SAM/SAH >= median, with SSRI", "value": "−1.221"},
      {"measurement": "Effect, change in HAMD-17 score", "setting": "Pooled phases, MTRR 66 AG or GG and HNE-His >= median (24,11), with SSRI", "value": "−4.850"},
      {"measurement": "Effect, change in HAMD-17 score", "setting": "Pooled phases, MTRR 66 AG or GG and SAM/SAH < median (24,10), with SSRI", "value": "−5.879"},
      {"measurement": "Effect, change in HAMD-28 score", "setting": "Pooled phases, MTRR 66 AG or GG and SAM/SAH < median = 2.71 (plasma sample), with SSRI", "value": "−6.579"},
      {"measurement": "Effect, change in HAMD-17 score", "setting": "Pooled phases, SAM/SAH < median and HNE-His >= median (19,7), with SSRI", "value": "−9.898"},
      {"measurement": "Effect, change in HAMD-28 score", "setting": "Pooled phases, SAM/SAH < median and HNE-His >= median, with SSRI", "value": "−9.500"},
      {"measurement": "Effect, change in HAMD-17 score", "setting": "Pooled phases, SAM/SAH >= median and HNE-His < median (18,8), with SSRI", "value": 2.107},
      {"measurement": "Effect, change in HAMD-28 score", "setting": "Pooled phases, SAM/SAH >= median and HNE-His < median, with SSRI", "value": 2.413},
      {"measurement": "Effect, change in HAMD-17 score: BMI*treat", "setting": "[1]", "value": "−0.233"},
      {"measurement": "Effect, change in HAMD-28 score: BMI*treat", "setting": "[1]", "value": "−0.270"},
      {"measurement": "Effect, change in HAMD-17 score: HNE-his*treat", "setting": "[2]", "value": 0.626},
      {"measurement": "Effect, change in HAMD-28 score: HNE-his*treat", "setting": "[2]", "value": 0.685},
      {"measurement": "Effect, change in HAMD-17 score: SAM/SAH*treat", "setting": "[3]", "value": 0.882},
      {"measurement": "Effect, change in HAMD-28 score: SAM/SAH*treat (last line)", "setting": "[3]", "value": 1.112},
      {"measurement": "Effect, change in HAMD-17 score: baseHAMD-17*treat", "setting": "Pooled phases, interaction of base HAMD-17 with the treatment, with SSRI", "value": "−0.025"},
      {"measurement": "Effect, change in HAMD-28 score: SAM/SAH*treat (first line under HAMD28)", "setting": "Pooled phases, interaction with the treatment, with SSRI", "value": 0.882},
      {"measurement": "improvement in HDRS-28 or CGI-S, patients with at least one T allele at MTHFR 677 vs no T allele (in words)", "setting": "in combination with an SSRI, FIGS. 4A-4B", "value": "greater degree of improvement"},
      {"measurement": "improvement in HAMD-28 or CGI-S, obese (BMI at least 30 kg/m^2) vs non-obese patients (in words)", "setting": "in combination with an SSRI, FIGS. 5A-5B", "value": "greater degree of improvement"}
    ]}
  ]
}
